Results reported in article PMC6127852 (Journal of Enzyme Inhibition and Medicinal Chemistry, 2018).
Values after ≈ are worked out from the molar mass of the structure shown.

What was measured:
calf thymus ctDNA = assay: UV–Vis titration with ctDNA (Scatchard); assay type: binding; details: PBS, pH 7; for Hypochromic effect H/%, ctDNA: UV–Vis titration, calculated by Scatchard equation; for log Ks, ctDNA: binding constant, Scatchard
Experimental: (§1) Polynucleotides were purchased as follows: polyG–polyC, polyA–polyU (Sigma-Aldrich, St. Louis, MO), calf thymus ctDNA (Aldrich). Polynucleotides were dissolved in PBS buffer, I = 0.05 mol dm^−3, pH 7.0. The calf thymus ctDNA was additionally sonicated and filtered through a […] filter. The polynucleotide concentration was spectroscopically determined as the concentration of nucleobases.
(§2) All UV–Vis absorbance measurements were conducted on a Perkin Elmer Lambda 25 spectrophotometer (Perkin Elmer, Waltham, MA). A quartz cell with a 1 cm path length was used for all absorbance studies. Compound stock solutions were 1 mM. The DNA/RNA at increasing ratios was then titrated into the compound buffer solution (1.48 × 10^−5 mol dm^−3) and the corresponding absorption spectra were recorded under the same conditions. All data were graphed and analysed using Origin software version 9.0 (OriginLab Corporation, Northampton, MA). The stability constants (Ks) and [bound compound]/[polynucleotide phosphate] ratios (n) were calculated according to the Scatchard Equation[63] ^, [64]. Values for Ks and n given in Table 1 all have satisfying correlation coefficients (0.99).
(§3) The binding constants logKs and the density of the binding sites n were calculated using Scatchard plot analysis. In addition, the binding constants Ks for compounds 8b and 8e were calculated only for titration data taken at the r ≥ 0.1, because below that ratio changes in absorption maxima were too small for accurate calculation (ΔA ≤ 0.04) (Table 1). The binding constants Ks and ratios n obtained by processing UV–Vis titration data using the Scatchard equation are summarised in Table 1.

polyA-polyU [1] = assay: UV–Vis titration with polyA-polyU (Scatchard); assay type: binding; details: for Hypochromic effect H/%, polyA-polyU: UV–Vis titration, calculated by Scatchard equation; for Hypochromic effect H/%, polyA-polyU / log Ks, polyA-polyU: PBS, pH 7; for log Ks, polyA-polyU: binding constant, Scatchard
Experimental: as §1, §2, §3

polyC-polyG = assay: UV–Vis titration with polyC-polyG (Scatchard); assay type: binding; details: PBS, pH 7; for Hypochromic effect H/%, polyC-polyG: UV–Vis titration, calculated by Scatchard equation; for log Ks, polyC-polyG: binding constant, Scatchard
Experimental: as §1, §2, §3

ctDNA = assay: Thermal melting (ΔTm) of ctDNA; assay type: binding, calf; details: PBS, pH 7; for ΔTm, ctDNA, r = 0.3: r = [compound]/[polynucleotide] 0.3, error ±0.5 °C
Experimental: (§4) T m experiments were conducted with a Perkin Elmer Lambda 25 spectrophotometer in 1 cm quartz cuvettes. The absorbance of the DNA/RNA-compound complex was monitored at 260 nm as a function of temperature. The absorbance of the ligands was subtracted from every curve, and the absorbance scale was normalised. The ΔT m values were calculated by subtracting T m of the free nucleic acid from T m of the complex. Every reported ΔT m value was the average of at least two measurements. The error of ΔT m is ±0.5 °C. All data were graphed and analysed using Origin software version 9.0.
(§5) Denaturation experiments were carried out at different amounts of the compounds (r = 0.1, 0.3, 0.5, and 0.7 eq; r = [compound]/[polynucleotide]) with ctDNA and polyA-polyU.

polyA-polyU [2] = assay: Thermal melting (ΔTm) of polyA-polyU; assay type: binding; details: for ΔTm, polyA-polyU, r = 0.1: PBS, pH 7; for ΔTm, polyA-polyU, r = 0.3 / ΔTm, polyA-polyU, r = 0.5: first melting midpoint
Experimental: as §4, §5

S. aureus MRSA = assay: Broth microdilution MIC, MRSA clinical strain; assay type: cell-based; details: Staphylococcus aureus, antibiotic-resistant clinical strain
Experimental: (§6) The compounds were evaluated for their in vitro anti-bacterial activity against Gram-positive bacteria: S. aureus (ATCC 25923), MRSA, methicillin-sensitive S. aureus (MSSA), E. faecalis, vancomycin-resistant E. faecium (VREF), and Gram-negative bacteria: E. coli (ATCC 25925), P. aeruginosa (ATCC 27853), A. baumannii (ATCC 19606) and ESBL-producing K. pneumoniae (ATCC 27736). Standard broth microdilution method as recommended in guidelines of Clinical and Laboratory Standards Institute[61] ^, [65] ^, [66] was applied and the minimum inhibitory concentration (MIC) of compounds was tested. In short, testing was performed in U-bottomed 96-well sterile plastic microdilution trays (Falcon 3077, Becton Dickinson Labware, Franklin Lakes, NJ) in cation (Ca^2+ and Mg^2+) adjusted Mueller–Hinton broth medium (Becton Dickinson and Co., Cockeysville, MD). All testings were performed in triplicate.

S. aureus MSSA = assay: Broth microdilution MIC, MSSA clinical strain; assay type: cell-based; details: Staphylococcus aureus
Experimental: as §6

E. faecium VRE = assay: Broth microdilution MIC, VRE clinical strain; assay type: cell-based; details: Enterococcus faecium
Experimental: as §6

S. aureus ATCC 25923 = assay: Broth microdilution MIC, S. aureus ATCC 25923; assay type: cell-based; details: Staphylococcus aureus, ATCC25923; Table S2
Experimental: as §6
(§7) The in vitro anti-bacterial activity of 5-amidinobenzimidazoles 7a–7e, 8a–8e, and 9a–9e was tested against Gram-positive bacteria including S. aureus (ATCC 25923), Enterococcus faecalis (ATCC 29212), and Gram-negative bacteria including E. coli (ATCC 25925), K. pneumoniae (ATCC 700803), P. aeruginosa (ATCC 27853), and Acinetobacter baumannii (ATCC 19606).

E. faecalis ATCC 29212 = assay: Broth microdilution MIC, E. faecalis ATCC 29212; assay type: cell-based; details: Enterococcus faecalis, ATCC29212; Table S2
Experimental: as §6, §7

E. coli ATCC 25925 = assay: Broth microdilution MIC, E. coli ATCC 25925; assay type: cell-based; details: Escherichia coli, ATCC25925; Table S2
Experimental: as §6, §7

K. pneumonia ATCC 700803 = assay: Broth microdilution MIC, K. pneumoniae ATCC 700803; assay type: cell-based; details: Klebsiella pneumoniae, ATCC700803; Table S2
Experimental: as §6, §7

P. aeruginosa ATCC 27853 = assay: Broth microdilution MIC, P. aeruginosa ATCC 27853; assay type: cell-based; details: Pseudomonas aeruginosa, ATCC27853; Table S2
Experimental: as §6, §7

A. baumannii ATCC 19606 = assay: Broth microdilution MIC, A. baumannii ATCC 19606; assay type: cell-based; details: Acinetobacter baumannii, ATCC19606; Table S2
Experimental: as §6, §7

[3] = system: bloodstream form T. brucei (strain 221); assay: Anti-trypanosomal screening, resazurin; assay type: cell-based; details: Trypanosoma brucei, mean of triplicate ± SEM
Experimental: Bloodstream form T. brucei (strain 221) were cultured in modified Iscove’s medium, as outlined[67] and trypanocidal assays were performed using 96-well microtitre plates. […] Resazurin was added after 48 h, the plates incubated for a further 16 h, and then read in a Spectramax plate reader (Molecular Devices Corporation, San Jose, CA). The data were analysed using GraphPad Prism (GraphPad, La Jolla, CA). Each drug concentration was tested in triplicate.

[4] = system: polyA-polyU (RNA, polymer) A/U; assay: UV-Vis titration, Scatchard; details: PBS, I = 0.05 M (Table 1 says I = 0.015 M), cations not specified, I = 0.015 M (Methods: 0.05 M)
[5] = system: polyG-polyC (polyC-polyG) (RNA, polymer) G/C; assay: UV-Vis titration, Scatchard; details: PBS; for log Ks: I = 0.05 M (Table 1 says I = 0.015 M), cations not specified, I = 0.015 M (Methods: 0.05 M), pH 7, per base
E. coli ESBL = assay: Broth microdilution MIC, ESBL E. coli clinical strain; assay type: cell-based; details: Escherichia coli
P. aeruginosa ESBL = assay: Broth microdilution MIC, ESBL P. aeruginosa clinical strain; assay type: cell-based; details: Pseudomonas aeruginosa
[6] = system: polyA-polyU (RNA, polymer) A/U; assay: UV melting at 260 nm; details: PBS, I = 0.05 M, cations not specified, pH 7, r = 0.3 [compound]/[polynucleotide]
[7] = footnote c: biphasic melting curve

| SMILES | Hypochromic effect H/%, ctDNA (calf thymus ctDNA) [%] | log Ks, ctDNA (calf thymus ctDNA) | Hypochromic effect H/%, polyA-polyU (polyA-polyU [1]) [%] | log Ks, polyA-polyU (polyA-polyU [1]) | Hypochromic effect H/%, polyC-polyG (polyC-polyG) [%] | ΔTm, ctDNA, r = 0.5 (ctDNA) [°C] | ΔTm, ctDNA, r = 0.7 (ctDNA) [°C] | ΔTm, ctDNA, r = 0.3 (ctDNA) [°C] | ΔTm, polyA-polyU, r = 0.1 (polyA-polyU [2]) [°C] | ΔTm, polyA-polyU, r = 0.3 (polyA-polyU [2]) [°C] | MIC (S. aureus MRSA) [mg/L] | MIC (S. aureus MSSA) [mg/L] | MIC (E. faecium VRE) [mg/L] | MIC (S. aureus ATCC 25923) [mg/L] | MIC (E. faecalis ATCC 29212) [mg/L] | MIC (E. coli ATCC 25925) [mg/L] | MIC (K. pneumonia ATCC 700803) [mg/L] | MIC (P. aeruginosa ATCC 27853) [mg/L] | MIC (A. baumannii ATCC 19606) [mg/L] | IC50 [3] [µM] | also measured |
| --- | --- | --- | --- | --- | --- | --- | --- | --- | --- | --- | --- | --- | --- | --- | --- | --- | --- | --- | --- | --- | --- |
| CC(C)NC(=N)c1ccc2[nH]c(-c3ccc(OCc4cn(-c5ccccc5Cl)nn4)cc3)nc2c1.Cl.Cl [Compound 8c, N-isopropyl-2–(4-((1–(2-chlorophenyl)-1H-1,2,3-triazol-4-yl)methoxy)phenyl)-1H-benz[d]imidazole-5-carboximidamide dihydrochloride] | 33.8 | 5.64 | 50.4 | 6.00 | 5.31 | 3.89 | 4.39 | 3.40 | 0.76 | 0.58 | 8 | 16 | 32 | 32 | 64 | 256 | > 256 | > 256 | > 256 | > 15 | log Ks, polyC-polyG (polyC-polyG): 6.43; ΔTm, polyA-polyU, r = 0.5 (polyA-polyU [2]; r = 0.5): 1.12 °C; melting point: 210 to 213 °C; log Ks ([4]; pH 7, per base): 6.00; log Ks [5]: 6.43 |
| c1ccc(Cn2cc(COc3ccc(-c4nc5cc(C6=NCCN6)ccc5[nH]4)cc3)nn2)cc1 [Compound 9d] | 24.6 | 5.84 |  | 5.89 | 5.89 | 3.52 | 2.60 | 3.31 | 1.26 | 1.42 | 64 (≈ 142 µM) | 64 (≈ 142 µM) | 64 (≈ 142 µM) | 64 (≈ 142 µM) | 128 (≈ 285 µM) | 128 (≈ 285 µM) | > 256 | 128 (≈ 285 µM) | > 256 | 10.8 ± 0.4 | Hypochromic effect H/%, polyA-polyU (from experimental data) (polyA-polyU [1]; footnote e: calculated from experimental data): 55.5 ^e %; log Ks, polyC-polyG (polyC-polyG): 6.59; ΔTm, polyA-polyU, r = 0.3, second melting midpoint (polyA-polyU [2]; [7]): 10.30^c °C; ΔTm, polyA-polyU, r = 0.5 (polyA-polyU [2]; r = 0.5): 2.06 °C; ΔTm, polyA-polyU, r = 0.5, second melting midpoint (polyA-polyU [2]; r = 0.5, footnote c: biphasic melting curve): 13.29^c °C; MIC (E. coli ESBL): 128 mg/L (≈ 285 µM); MIC (P. aeruginosa ESBL): 128 mg/L (≈ 285 µM); IC90 [3]: > 25 µM; ΔTm ([6]; error ±0.5, biphasic, second midpoint 10.30, per base): 1.42 °C; log Ks ([4]; pH 7, n fixed, per base): 5.89; log Ks [5]: 6.59 |
| Cl.Cl.N=C(N)c1ccc2[nH]c(-c3ccc(OCc4cn(-c5ccccc5Cl)nn4)cc3)nc2c1 [Compound 7c, 2–(4-((1–(2-Chlorophenyl)-1H-1,2,3-triazol-4-yl)methoxy)phenyl)-1H-benz[d]imidazole-5-carboximidamide dihydrochloride] | 36.3 | 6.24 | 38.9 | 5.21 |  | 3.20 | 3.77 | 2.35 | 0.20 | 2.72 | 16 | 32 | 256 | 64 | 64 | 256 | > 256 | > 256 | > 256 | > 15 | melting point: 176 to 177 °C; ΔTm ([6]; error ±0.5, per base): 2.72 °C; log Ks ([4]; pH 7, per base): 5.21; binding ([5]; pH 7, changes too small for accurate calculation, compound 14.8 µM): weak |
| Cl.Cl.Clc1ccccc1-n1cc(COc2ccc(-c3nc4cc(C5=NCCN5)ccc4[nH]3)cc2)nn1 [Compound 9c, 5–(4,5-Dihydro-1H-imidazol-2-yl)-2–(4-((1–(2-chlorophenyl)-1H-1,2,3-triazol-4-yl)methoxy)phenyl)-1H-benz[d]imidazole dihydrochloride] | 11.7 | 6.43 | 29.3 | 5.38 | 5.34 | 3.31 | 3.80 | 3.55 | 2.85 | 4.27 | 8 | 128 | 64 | 128 | 32 | 256 | > 256 | > 256 | > 256 | > 15 | log Ks, polyC-polyG (polyC-polyG): 6.43; ΔTm, polyA-polyU, r = 0.3, second melting midpoint (polyA-polyU [2]; [7]): 13.99 °C; melting point: 194 to 196 °C; ΔTm ([6]; error ±0.5, biphasic, second midpoint 13.99, per base): 4.27 °C; log Ks ([4]; pH 7, per base): 5.38; log Ks [5]: 6.43 |
